Experiments:
Assay in all cases: radiometric filter-binding kinase assay, Kinase HotSpot
Details in all cases: compound 0.5 µM; ATP 10 µM
CSNK1G1 (human) = CSNK1G1 (human) (UniProt Q9HCP0)
OXSR1 (human) = OXSR1 (human) (UniProt O95747)
IRAK4 (human) = IRAK4 (human) (UniProt Q9NWZ3)
STK4 (human) = STK4 (human) (UniProt Q13043)
CLK2 (human) = CLK2 (human) (UniProt P49760)
MUSK (human) = MUSK (human) (UniProt O15146)
MAP3K8 (human) = MAP3K8 (human) (UniProt P41279)
LTK (human) = LTK (human) (UniProt P29376)
ADRBK1 (human) = ADRBK1 (human) (UniProt P25098)
PRKCI (human) = PRKCI (human) (UniProt P41743)
ROCK2 (human) = ROCK2 (human) (UniProt O75116)
CHEK1 (human) = CHEK1 (human) (UniProt O14757)
BRSK2 (human) = BRSK2 (human) (UniProt Q8IWQ3)
ALK (human) = ALK (human) (UniProt Q9UM73)
STK16 (human) = STK16 (human) (UniProt O75716)
DDR2 (human) = DDR2 (human) (UniProt Q16832)
SRC (human) = SRC (human) (UniProt P12931)
STK17A (human) = STK17A (human) (UniProt Q9UEE5)
RPS6KB1 (human) = RPS6KB1 (human) (UniProt P23443)
MAP3K10 (human) = MAP3K10 (human) (UniProt Q02779)
DYRK3 (human) = DYRK3 (human) (UniProt O43781)
PAK6 (human) = PAK6 (human) (UniProt Q9NQU5)
PLK2 (human) = PLK2 (human) (UniProt Q9NYY3)
[1] = test system: MAP2K6 (human), P52564 [S207E/T211E]
HIPK1 (human) = HIPK1 (human) (UniProt Q86Z02)
TSSK1B (human) = TSSK1B (human) (UniProt Q9BXA7)
MAPK11 (human) = MAPK11 (human) (UniProt Q15759)
IKBKE (human) = IKBKE (human) (UniProt Q14164)
MAP3K14 (human) = MAP3K14 (human) (UniProt Q99558)
ROCK1 (human) = ROCK1 (human) (UniProt Q13464)
PTK2B (human) = PTK2B (human) (UniProt Q14289)
AKT3 (human) = AKT3 (human) (UniProt Q9Y243)
MAP2K1 (human) = MAP2K1 (human) (UniProt Q02750)
CSNK1E (human) = CSNK1E (human) (UniProt P49674)
SIK2 (human) = SIK2 (human) (UniProt Q9H0K1)
MAP2K2 (human) = MAP2K2 (human) (UniProt P36507)
PRKD3 (human) = PRKD3 (human) (UniProt O94806)
PAK3 (human) = PAK3 (human) (UniProt O75914)
CDK4 CCND1 (human) = CDK4 CCND1 (human) (UniProt P24385+P11802)
CAMK1 (human) = CAMK1 (human) (UniProt Q14012)
EPHB1 (human) = EPHB1 (human) (UniProt P54762)

MUSK (human), sequence (O15146 whole entry, looked up): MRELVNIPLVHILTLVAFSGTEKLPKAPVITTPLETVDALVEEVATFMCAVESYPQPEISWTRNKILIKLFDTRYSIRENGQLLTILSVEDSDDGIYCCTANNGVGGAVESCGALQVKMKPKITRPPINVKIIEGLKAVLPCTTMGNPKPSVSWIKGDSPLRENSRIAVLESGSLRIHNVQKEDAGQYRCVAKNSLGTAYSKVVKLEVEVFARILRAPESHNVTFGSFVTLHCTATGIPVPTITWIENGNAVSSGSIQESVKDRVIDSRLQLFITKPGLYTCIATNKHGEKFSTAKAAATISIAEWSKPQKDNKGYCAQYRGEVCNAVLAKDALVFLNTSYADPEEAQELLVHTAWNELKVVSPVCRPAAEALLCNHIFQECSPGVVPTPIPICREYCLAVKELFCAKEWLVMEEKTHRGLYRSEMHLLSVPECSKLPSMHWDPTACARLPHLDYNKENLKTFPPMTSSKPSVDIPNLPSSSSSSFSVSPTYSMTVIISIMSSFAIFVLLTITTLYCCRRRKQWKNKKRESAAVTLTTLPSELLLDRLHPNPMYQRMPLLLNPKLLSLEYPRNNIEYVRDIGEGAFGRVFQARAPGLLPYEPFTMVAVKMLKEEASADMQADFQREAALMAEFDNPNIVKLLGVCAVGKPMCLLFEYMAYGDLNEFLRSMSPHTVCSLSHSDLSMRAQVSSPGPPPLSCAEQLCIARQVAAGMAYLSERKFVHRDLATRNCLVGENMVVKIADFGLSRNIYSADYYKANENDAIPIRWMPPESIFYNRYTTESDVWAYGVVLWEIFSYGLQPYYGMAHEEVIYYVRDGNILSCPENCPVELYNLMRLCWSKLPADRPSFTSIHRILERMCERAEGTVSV
CHEK1 (human), sequence (O14757 whole entry, looked up): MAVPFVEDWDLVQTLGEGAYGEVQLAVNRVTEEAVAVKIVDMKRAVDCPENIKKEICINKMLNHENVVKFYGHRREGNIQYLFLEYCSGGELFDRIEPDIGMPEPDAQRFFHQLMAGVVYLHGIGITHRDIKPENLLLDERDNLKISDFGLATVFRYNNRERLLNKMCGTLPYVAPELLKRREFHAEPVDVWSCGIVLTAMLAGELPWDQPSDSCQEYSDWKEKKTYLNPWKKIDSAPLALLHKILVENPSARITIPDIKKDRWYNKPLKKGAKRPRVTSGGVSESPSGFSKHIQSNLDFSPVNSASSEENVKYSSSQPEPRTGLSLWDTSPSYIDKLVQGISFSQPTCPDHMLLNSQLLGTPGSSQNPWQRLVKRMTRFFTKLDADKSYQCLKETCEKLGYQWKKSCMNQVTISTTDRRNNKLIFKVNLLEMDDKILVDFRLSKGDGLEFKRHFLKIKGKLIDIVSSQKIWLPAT
ADRBK1 (human), sequence (P25098 whole entry, looked up): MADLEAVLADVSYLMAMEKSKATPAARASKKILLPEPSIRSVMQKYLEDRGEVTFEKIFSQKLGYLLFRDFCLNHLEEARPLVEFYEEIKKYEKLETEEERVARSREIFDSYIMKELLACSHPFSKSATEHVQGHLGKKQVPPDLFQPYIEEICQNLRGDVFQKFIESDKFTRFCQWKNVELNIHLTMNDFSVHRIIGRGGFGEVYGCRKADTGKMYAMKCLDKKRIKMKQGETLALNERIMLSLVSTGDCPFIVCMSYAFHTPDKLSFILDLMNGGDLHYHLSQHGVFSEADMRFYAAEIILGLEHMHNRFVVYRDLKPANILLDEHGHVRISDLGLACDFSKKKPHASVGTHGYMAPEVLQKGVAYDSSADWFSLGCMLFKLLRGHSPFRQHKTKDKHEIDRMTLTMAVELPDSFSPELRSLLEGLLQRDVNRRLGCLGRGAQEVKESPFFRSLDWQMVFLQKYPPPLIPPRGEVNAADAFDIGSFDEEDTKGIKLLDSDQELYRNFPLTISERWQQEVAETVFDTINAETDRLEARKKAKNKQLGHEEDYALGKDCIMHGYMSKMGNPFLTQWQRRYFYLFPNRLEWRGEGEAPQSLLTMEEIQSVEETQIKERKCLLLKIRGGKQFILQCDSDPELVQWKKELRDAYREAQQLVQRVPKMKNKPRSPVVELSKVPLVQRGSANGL
MAP2K1 (human), sequence (Q02750 whole entry, looked up): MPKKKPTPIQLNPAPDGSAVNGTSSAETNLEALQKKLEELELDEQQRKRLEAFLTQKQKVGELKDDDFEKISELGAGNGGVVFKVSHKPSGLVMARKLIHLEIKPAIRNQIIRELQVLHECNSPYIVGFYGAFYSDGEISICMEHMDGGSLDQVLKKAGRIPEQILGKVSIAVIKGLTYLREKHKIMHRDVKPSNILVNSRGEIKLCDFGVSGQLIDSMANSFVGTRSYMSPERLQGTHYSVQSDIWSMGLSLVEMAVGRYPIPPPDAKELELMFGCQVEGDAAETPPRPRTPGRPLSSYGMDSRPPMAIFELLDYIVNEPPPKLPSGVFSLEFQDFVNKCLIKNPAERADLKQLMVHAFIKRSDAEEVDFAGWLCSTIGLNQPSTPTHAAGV
MAP3K10 (human), sequence (Q02779 whole entry, looked up): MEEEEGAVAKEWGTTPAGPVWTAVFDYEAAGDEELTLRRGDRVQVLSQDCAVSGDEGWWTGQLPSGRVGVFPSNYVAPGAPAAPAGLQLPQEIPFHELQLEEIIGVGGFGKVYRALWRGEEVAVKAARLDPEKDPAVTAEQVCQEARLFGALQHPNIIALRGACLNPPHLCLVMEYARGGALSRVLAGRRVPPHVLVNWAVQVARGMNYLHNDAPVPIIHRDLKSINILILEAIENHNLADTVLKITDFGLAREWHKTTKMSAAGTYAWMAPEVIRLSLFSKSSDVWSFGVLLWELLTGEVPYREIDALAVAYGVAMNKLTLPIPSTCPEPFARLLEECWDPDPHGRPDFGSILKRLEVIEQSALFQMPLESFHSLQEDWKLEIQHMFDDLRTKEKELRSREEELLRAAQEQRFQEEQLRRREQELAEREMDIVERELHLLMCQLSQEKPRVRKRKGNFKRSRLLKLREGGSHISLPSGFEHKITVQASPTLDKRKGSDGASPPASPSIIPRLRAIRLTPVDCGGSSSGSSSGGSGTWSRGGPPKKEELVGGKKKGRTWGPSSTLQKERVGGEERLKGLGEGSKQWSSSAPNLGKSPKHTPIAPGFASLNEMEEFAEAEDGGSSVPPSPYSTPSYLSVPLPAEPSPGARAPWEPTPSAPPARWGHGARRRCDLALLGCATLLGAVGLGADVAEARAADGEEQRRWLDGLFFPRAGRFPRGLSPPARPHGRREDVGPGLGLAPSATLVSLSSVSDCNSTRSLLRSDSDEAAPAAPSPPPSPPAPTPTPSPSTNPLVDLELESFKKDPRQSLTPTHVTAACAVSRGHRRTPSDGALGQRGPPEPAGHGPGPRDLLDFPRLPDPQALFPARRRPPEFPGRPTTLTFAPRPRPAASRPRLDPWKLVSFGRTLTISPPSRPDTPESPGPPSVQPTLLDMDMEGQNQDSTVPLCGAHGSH
SRC (human), sequence (P12931 whole entry, looked up): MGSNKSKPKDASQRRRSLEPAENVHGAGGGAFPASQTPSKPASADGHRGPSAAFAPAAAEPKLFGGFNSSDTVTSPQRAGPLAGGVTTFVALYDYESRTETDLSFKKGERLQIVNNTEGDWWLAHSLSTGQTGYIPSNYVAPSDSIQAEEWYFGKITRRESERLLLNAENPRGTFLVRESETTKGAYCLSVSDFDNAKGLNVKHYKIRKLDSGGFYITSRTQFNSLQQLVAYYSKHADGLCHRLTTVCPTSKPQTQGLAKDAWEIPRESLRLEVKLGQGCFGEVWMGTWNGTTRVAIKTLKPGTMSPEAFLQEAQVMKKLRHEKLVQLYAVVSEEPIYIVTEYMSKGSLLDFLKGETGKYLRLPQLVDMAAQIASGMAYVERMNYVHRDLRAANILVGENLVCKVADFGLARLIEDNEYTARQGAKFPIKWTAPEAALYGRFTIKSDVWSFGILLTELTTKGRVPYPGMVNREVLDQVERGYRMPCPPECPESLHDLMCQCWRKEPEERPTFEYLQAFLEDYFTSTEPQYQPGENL
IKBKE (human), sequence (Q14164 whole entry, looked up): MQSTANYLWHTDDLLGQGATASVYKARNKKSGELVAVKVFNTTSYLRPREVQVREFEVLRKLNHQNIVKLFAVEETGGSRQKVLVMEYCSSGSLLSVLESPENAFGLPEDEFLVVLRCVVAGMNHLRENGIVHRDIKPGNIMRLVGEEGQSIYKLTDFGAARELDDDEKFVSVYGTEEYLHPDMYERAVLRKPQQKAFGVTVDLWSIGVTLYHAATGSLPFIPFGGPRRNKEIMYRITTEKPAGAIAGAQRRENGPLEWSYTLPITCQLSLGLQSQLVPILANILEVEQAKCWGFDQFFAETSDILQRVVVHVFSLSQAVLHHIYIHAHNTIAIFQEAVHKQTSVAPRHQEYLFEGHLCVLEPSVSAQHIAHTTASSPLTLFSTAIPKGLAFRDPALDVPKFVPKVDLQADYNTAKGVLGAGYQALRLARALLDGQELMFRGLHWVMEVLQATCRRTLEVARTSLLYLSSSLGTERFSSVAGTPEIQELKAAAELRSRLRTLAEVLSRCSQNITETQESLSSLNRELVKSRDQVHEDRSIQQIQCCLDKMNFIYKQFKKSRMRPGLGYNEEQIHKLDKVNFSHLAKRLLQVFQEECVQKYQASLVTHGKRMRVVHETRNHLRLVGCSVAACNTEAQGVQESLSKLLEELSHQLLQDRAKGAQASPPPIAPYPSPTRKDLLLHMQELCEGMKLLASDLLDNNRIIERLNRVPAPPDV
STK17A (human), sequence (Q9UEE5 whole entry, looked up): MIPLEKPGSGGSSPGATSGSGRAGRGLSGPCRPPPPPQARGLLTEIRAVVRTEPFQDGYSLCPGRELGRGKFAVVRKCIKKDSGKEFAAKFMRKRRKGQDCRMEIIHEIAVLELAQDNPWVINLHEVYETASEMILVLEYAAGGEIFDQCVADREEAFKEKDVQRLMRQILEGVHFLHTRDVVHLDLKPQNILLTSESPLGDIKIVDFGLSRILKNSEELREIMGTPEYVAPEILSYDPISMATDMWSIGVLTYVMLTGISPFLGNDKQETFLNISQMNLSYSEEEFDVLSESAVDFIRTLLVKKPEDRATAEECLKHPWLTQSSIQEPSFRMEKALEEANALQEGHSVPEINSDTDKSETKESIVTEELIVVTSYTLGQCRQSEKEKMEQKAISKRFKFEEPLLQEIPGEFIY

With `CO[C@@H]1[C@H](N(C)C(=O)c2ccccc2)C[C@H]2O[C@]1(C)n1c3ccccc3c3c4c(c5c6ccccc6n2c5c31)C(=O)NC4` the residual activity (CSNK1G1 (human)) was 103%, the residual activity (OXSR1 (human)) was 98.2% and the residual activity (IRAK4 (human)) was 71.5%. For the same molecule, the residual activity (STK4 (human)) was 5.58%, the residual activity (CLK2 (human)) was 36% and the residual activity (MUSK (human)) was 44.6%. For the same molecule, the residual activity (MAP3K8 (human)) was 99.6%, the residual activity (LTK (human)) was 50.1% and the residual activity (ADRBK1 (human)) was 102%. The residual activity (PRKCI (human)) was 96.4%, the residual activity (ROCK2 (human)) was 80.9% and the residual activity (CHEK1 (human)) was 53%. It also gave a residual activity (BRSK2 (human)) of 16.4%, a residual activity (ALK (human)) of 49.2% and a residual activity (STK16 (human)) of 47.9%. For the same molecule, the residual activity (DDR2 (human)) was 380%, the residual activity (SRC (human)) was 39.6% and the residual activity (STK17A (human)) was 62.9%. It also gave a residual activity (RPS6KB1 (human)) of 19.4%, a residual activity (MAP3K10 (human)) of 3.15% and a residual activity (DYRK3 (human)) of 98.5%. It also gave a residual activity (PAK6 (human)) of 96.4%, a residual activity (PLK2 (human)) of 97.5% and a residual activity [1] of 91.4%. The residual activity (HIPK1 (human)) was 101%, the residual activity (TSSK1B (human)) was 8.24% and the residual activity (MAPK11 (human)) was 97.6%. The residual activity (IKBKE (human)) was 9.85%, the residual activity (MAP3K14 (human)) was 113% and the residual activity (ROCK1 (human)) was 85.3%. The residual activity (PTK2B (human)) was 58.2%, the residual activity (AKT3 (human)) was 55.1% and the residual activity (MAP2K1 (human)) was 109%.
In the case of `C[C@@H]1CCN(C(=O)CC#N)C[C@@H]1N(C)c1ncnc2[nH]ccc12`, the residual activity (CSNK1G1 (human)) was 101%, the residual activity (OXSR1 (human)) was 98.2% and the residual activity (CSNK1E (human)) was 101%. The residual activity (SIK2 (human)) was 89.2%, the residual activity (IRAK4 (human)) was 88.5% and the residual activity (STK4 (human)) was 95.5%. For the same molecule, the residual activity (CLK2 (human)) was 85.8%, the residual activity (MUSK (human)) was 103% and the residual activity (MAP3K8 (human)) was 93.5%. The residual activity (ADRBK1 (human)) was 95.3%, the residual activity (MAP2K2 (human)) was 117% and the residual activity (PRKCI (human)) was 103%. For the same molecule, the residual activity (ROCK2 (human)) was 69.9%, the residual activity (CHEK1 (human)) was 94.1% and the residual activity (BRSK2 (human)) was 86.9%. For the same molecule, the residual activity (ALK (human)) was 107%, the residual activity (STK16 (human)) was 94.7% and the residual activity (DDR2 (human)) was 104%. It also gave a residual activity (PRKD3 (human)) of 89.8%, a residual activity (SRC (human)) of 99.8% and a residual activity (STK17A (human)) of 106%. It also gave a residual activity (RPS6KB1 (human)) of 103%, a residual activity (MAP3K10 (human)) of 105% and a residual activity (DYRK3 (human)) of 106%. The residual activity (PAK6 (human)) was 102%, the residual activity (PAK3 (human)) was 105% and the residual activity (PLK2 (human)) was 102%. For the same molecule, the residual activity [1] was 99.4%, the residual activity (HIPK1 (human)) was 98.1% and the residual activity (TSSK1B (human)) was 85.1%. The residual activity (MAPK11 (human)) was 103%, the residual activity (IKBKE (human)) was 94.8% and the residual activity (MAP3K14 (human)) was 107%. The residual activity (ROCK1 (human)) was 90.1%, the residual activity (AKT3 (human)) was 85.8% and the residual activity (MAP2K1 (human)) was 112%. For the same molecule, the residual activity (CDK4 CCND1 (human)) was 94.1%, the residual activity (CAMK1 (human)) was 99.3% and the residual activity (EPHB1 (human)) was 106%.
With `Cn1c2ccccc2c2c3c(c4c5ccccc5n(CCC#N)c4c21)CNC3=O` the residual activity (CSNK1G1 (human)) was 93.3%, the residual activity (OXSR1 (human)) was 102% and the residual activity (CSNK1E (human)) was 80.4%. For the same molecule, the residual activity (SIK2 (human)) was 54.5%, the residual activity (IRAK4 (human)) was 63.5% and the residual activity (STK4 (human)) was 3.73%. It also gave a residual activity (CLK2 (human)) of 88.7%, a residual activity (MUSK (human)) of 34.8% and a residual activity (MAP3K8 (human)) of 111%. The residual activity (LTK (human)) was 8.79%, the residual activity (ADRBK1 (human)) was 103% and the residual activity (MAP2K2 (human)) was 92.5%. The residual activity (PRKCI (human)) was 91.6%, the residual activity (ROCK2 (human)) was 48.5% and the residual activity (CHEK1 (human)) was 7.95%. It also gave a residual activity (BRSK2 (human)) of 26.3%, a residual activity (ALK (human)) of 12.2% and a residual activity (STK16 (human)) of 81.1%. The residual activity (DDR2 (human)) was 73.3%, the residual activity (PRKD3 (human)) was 7.3% and the residual activity (SRC (human)) was 74.8%. The residual activity (STK17A (human)) was 85.3%, the residual activity (RPS6KB1 (human)) was 6.71% and the residual activity (MAP3K10 (human)) was 25.8%. For the same molecule, the residual activity (DYRK3 (human)) was 83.9%, the residual activity (PAK6 (human)) was 20.4% and the residual activity (PAK3 (human)) was 122%. The residual activity (PLK2 (human)) was 105%, the residual activity [1] was 21.1% and the residual activity (HIPK1 (human)) was 81.1%. It also gave a residual activity (TSSK1B (human)) of 10.1%, a residual activity (MAPK11 (human)) of 99.5% and a residual activity (IKBKE (human)) of 69.4%. It also gave a residual activity (MAP3K14 (human)) of 84.1%, a residual activity (ROCK1 (human)) of 61.9% and a residual activity (PTK2B (human)) of 26.7%. The residual activity (AKT3 (human)) was 85.3%, the residual activity (MAP2K1 (human)) was 90.2% and the residual activity (CDK4 CCND1 (human)) was 27.5%. The residual activity (CAMK1 (human)) was 94.2% and the residual activity (EPHB1 (human)) was 95%.
